US10188754B2, “Compositions and methods for chemical exchange saturation transfer (CEST) based magnetic resonance imaging (MRI)” (THE JOHNS HOPKINS UNIVERSITY, priority 2013, dated 2019)
Values joined by “and” are separate entries in the source; they are usually repeats but may differ in a detail not shown here. Equal values may be shown once. Read-outs that look alike come from different tables or passages of the source.

Legend:
[1] = in vivo; cited from earlier work
[2] = format: physicochemical; conditions: 25 mM, pH 7.0-7.4, tsat=3 sec, ω1=3.6 μT, 37° C., 11.7 T
Procedure: 25 mM salicylic acid analogs (4-11) were made at pH 7.1-7.4 and tested with the phantom condition as described above. The Z-spectra were obtained by using Tsat=3 sec, ω1=3.6 μT at 37° C. […] CEST contrast was quantified by MTRasym=(S−Δω−S+Δω))/S0 after a voxel-by-voxel B0 correction, with characterized mean Z-spectra and MTRasym spectra for sample ROIs plotted and the typical results were summarized in FIG. 3A.

[3] = QUESP measurement of proton exchange rate (ksw) of salicylic acid; format: physicochemical; conditions: 25 mM, pH 7.0, QUESP
Text: The parameters for all fitting were: R1w=0.3, R2w=0.6, R1s=0.71, R2s=39, Tsat=3s.

[4] = format: in vivo, mouse; conditions: mice, i.v., 9.3 ppm, 7.2 μT
Text: In particular, images consisting of a single axial slice containing both kidneys were collected. Because the B0 inhomogeneity was less than 200 Hz for these animals, a two-point collection scheme was used to limit the scan time, which is also allowed by the use of the 7.2 μT field strength. […] A Z-spectrum was acquired before injection. […] According to the initial results in FIGS. 4F-4G, the in vivo data collection scheme was modified in order to improve the kinetic data for compound 1 in the kidney. […] In vivo images were acquired on a Bruker Biospec 11.7 T horizontal bore MR scanner, with one axial slice of 1.5 mm thickness obtained through the medulla of both kidneys. […] The BALB/c mice (n=2) weighing 20-25 g (Charles River Laboratories, Wilmington, Mass.) were maintained under specific pathogen free conditions in the animal facility of Johns Hopkins University. […] Breath rate was monitored throughout in vivo MRI experiments using a respiratory probe. […] BALB/c mice weighing 20-25 g (Charles River Laboratories, Wilmington, Mass.) were maintained under specific pathogen free conditions in the animal facility of Johns Hopkins University. […] Breath rate was monitored throughout in vivo MRI experiments using a respiratory probe. A 60 μL, volume of a 0.25 M salicylic acid solution in PBS (pH 7) was slowly injected via a catheter into the tail vein. […]

[5] = QUESP/QUEST determination of ksw of anthranilic acid analogs; format: physicochemical
Procedure: (§1) The solutions were placed into 1 mm glass capillaries and assembled in a holder for CEST MR imaging. They were kept at 37° C. during imaging.
The Z-spectra were corrected pixel by pixel using a B0 map acquired using Water Saturation Shift Referencing (WASSR) as described in detail previously.
R1w was allowed to float between 0.33 and s^−1 to obtain the best fit.

[6] = format: physicochemical; conditions: 10 mM, pH 7.3-7.4, tsat = 3 sec, ω1 = 3.6 μT, 37° C.
[7] = pH 7.1-7.4, B1=3.6 μT, Tsat=3 s, 37° C., 11.7 T
Procedure: as §1
CEST contrast was quantified using MTRasym=[S(−Δω)−S(+Δω))]/S0 for phantom and 1−S(+Δω))/S(−Δω) in vivo to increase the temporal resolution and reduce the motion where S(+Δω) represents water signal intensity with a saturation pulse applied at the frequency+Δω and S0 represents the water signal without a saturation pulse.

[8] = neutral pH; cited from earlier work
[9] = 10 mM, pH 7.3-7.4, 37° C.
Procedure: The samples were kept at 37° C. during imaging. […] TR=15 s, TE=8 ms, matrix size=64×32, slice thickness=3 mm.
The relaxation parameters for each fit were: R1w=0.26 s^−1, R2w=0.43 s-1, R1s=0.71 s^−1, R2s=39 s^−1. These were determined by fitting the direct water saturation line for PBS and were fixed for subsequent fits of each compound with the exchange rate allowed to vary. All data was processed using Python, Scipy, and Numpy (www.python.org, scipy.org, and numpy.scipy.org, respectively).

[10] = 48.5 tM iopamidol; cited from earlier work

O=C(O)c1ccc(O)cc1O [2,4-Dihydroxy benzoic acid]
LD50 [1]: 800 mg/kg

Nc1ccc(C(=O)O)c(O)c1 [4-amino salicylic acid]
LD50 [1]: 4,250 mg/kg

O=C(O)c1ccccc1O [Compound 1, salicylic acid]
chemical shift of CEST contrast (exchangeable proton) from water [2]: 9.3 ppm
proton exchange rate with water (ksw) [3]: 1.2 ks^−1
average CEST contrast over the whole kidney [4]: 6.0±0.8% and 6%
ksw ([5]; pH 6.5): 2.4 kHz
ksw ([5]; pH 7.8): 0.4 kHz
Signal (ppm) ([6]; Table 1): 9.3 ppm
CEST frequency / labile proton chemical shift from water [7]: 9.3 ppm
exchange rate (previously reported) [8]: 600 s⁻¹
kex ([9]; Table 1): 400 s⁻¹

O=C(O)c1ccccc1Nc1cccc(C(F)(F)F)c1 [Compound 5, flufenamic acid, reference compound]
LD50 [1]: 150 mg/kg

Nc1cccc(C(=O)O)c1O [Compound 33, 3-aminosalicylic acid]
Signal (ppm) ([6]; Table 4): 9.0 ppm
kex ([9]; Table 4): 410 s⁻¹

O=Cc1cccc(C(=O)O)c1O [Compound 34, 3-Formylsalicylic acid]
Signal (ppm) ([6]; Table 4): 10.5 ppm
kex ([9]; Table 4): 510 s⁻¹

O=C(O)c1ccccc1Nc1ccccc1 [Compound 37]
Signal (ppm) ([6]; Table 5): 4.8 ppm
kex ([9]; Table 5): 670 s⁻¹

CS(=O)(=O)Nc1ccc(N)cc1C(=O)O [Compound 38]
Signal (ppm) ([6]; Table 5): 6.3 ppm
kex ([9]; Table 5): 550 s⁻¹

CS(=O)(=O)Nc1ccccc1C(=O)O [Compound 39]
Signal (ppm) ([6]; Table 5): 7.3 ppm
kex ([9]; Table 5): 470 s⁻¹

Cc1ccc(S(=O)(=O)Nc2ccccc2C(=O)O)cc1 [Compound 40]
Signal (ppm) ([6]; Table 5): 7.8 ppm
kex ([9]; Table 5): 440 s⁻¹

O=C(O)c1ccccc1NC(=O)C(F)(F)F [Compound 41]
Signal (ppm) ([6]; Table 5): 9.3 ppm
kex ([9]; Table 5): 190 s⁻¹

O=C(O)c1cc(O)c(C(=O)O)cc1O [Compound 42]
Signal (ppm) ([6]; Table 6): 8.3 ppm
kex ([9]; Table 6): 990 s⁻¹

O=C(O)c1cc(C(=O)O)c(O)cc1O [Compound 43, 4,6-dihydroxyisophthalic acid]
Signal (ppm) ([6]; Table 6): 9.8 ppm
kex ([9]; Table 6): 460 s⁻¹

O=C(O)c1cc2ccccc2c(Cc2c(O)c(C(=O)O)cc3ccccc23)c1O [Compound 44, Pamoic acid]
Signal (ppm) ([6]; Table 6): 9.5 ppm
kex ([9]; Table 6): 130 s⁻¹

C[C@H](O)C(=O)Nc1c(I)c(C(=O)NC(CO)CO)c(I)c(C(=O)NC(CO)CO)c1I [iopamidol]
optimal time to observe the contrast [10]: 45 min
